Reference: paper PMC5374710, “Discovery of the first dual GSK3β inhibitor/Nrf2 inducer. A new multitarget therapeutic strategy for Alzheimer’s disease” (Scientific Reports, 2017)
Like-named read-outs stand apart in the source and are kept apart here.

Key:
[1] = tested on: SH-SY5Y cells; conditions: human, 24 h
Description: (§4) Viability was measured as MTT reduction in presence of increasing concentrations of derivatives. Values are expressed as LD50 calculated from dose-response curves of four different concentrations.
(§5) Cells were cultured in 48-well (SH-SY5Y, 1x10^5 cells per well) or 96-well plates (HepG2, 1x10^5 cells per well) for 24 h. […] Control cells were incubated with the same concentration of DMSO (0.1 % final concentration) without any drug.

[2] = tested on: HepG2 cells; conditions: human, 24 h
Description: (§6) Thus, it is relevant to study the potential neurotoxicity and hepatotoxicity of the novel dual GSK3β inhibitors-Nrf2 inducers 5a–t.
as §4
(§7) HepG2 cells were cultured according to supplier indications in EMEM supplemented with 10 % heat-inactivated FBS, 100 µg/mL streptomycin and 100 units/mL penicillin. Cells were maintained at 37 °C in humidified atmosphere of 95 % air and 5 % CO2. For experimental procedures, cells were cultured in 96-well plates at density of 1x10^5 cells/well. Treatments were performed in 1% FBS medium unless other concentration was specified. Cells were used from 4 up to 13 passages.
as §5

[3] = tested on: Nrf2; assay: Nrf2-dependent luciferase reporter assay in AREc32 cell line; type: cell-based; conditions: AREc32 cells; for Nrf2 induction (luciferase activity), result in words: 24 h, compound 7 also at 60 and 100 μM; for EC50: Arec32, 24 h, read-out: CD (concentration required to double the luciferase reporter activity)
Description: Thereafter, we tested the ability of the compounds to induce the Nrf2 transcription factor. We used an Nrf2-dependent luciferase reporter assay in the AREc32 cell line[45]. Cells were cultured for 24 h and then treated with increasing concentrations of compounds 5a–t (0.3, 3, 10 and 30 μM), including the known inducer sulforaphane, containing an isothiocyanate motive as positive control.
AREc32 cells were plated in 96-well white plates (2 × 10^4 cells/well). After 24 h, cells were incubated with increasing concentrations of each compound in duplicate for 24 h. AREc32 cells express constitutively the plasmid pGL-8xARE that implements 8 copies of the EpRE sequences followed by luciferase reporter gen. Therefore, Nrf2 induction is related to the activation of EpRE sequences, expressing luciferase at the same extent as EpRE sequences are activated. The Luciferase Assay System (Promega E1500), was used according to provider protocol and luminescence was quantified in an Orion II microplate luminometer (Berthold, Germany). Fold induction of luciferase activity was normalized to basal conditions. Data are expressed as CD values, expressing the concentration required to double the luciferase activity. CD values are calculated from dose-response curves generated from fold induction of control conditions vs. inducer concentration and fitted by non-linear regression and data interpolated to 2-fold induction concentration.
Breast cancer cells stably transfected to express luciferase after EpRE sequences MCF-7/AREc32 named AREc32, were kindly provided by Dr. C. Roland Wolf (University of Dundee, UK).^14 AREc32 cells were maintained in DMEM with high glucose-glutamax, supplemented with 10 % FBS, 1 % penicillin-streptomycin (10,000 units), and geneticin (0.8 mg/ml G418) at 37 °C and in a 5 % CO2- air atmosphere.^14
AREc32 cells are constitutively transfected with the pGL-8xARE luciferase reporter gene, inserted after EpRE sequences. Thus, Nrf2 translocation to the nucleus induces the activation of the EpRE sequences, expressing their target phase II antioxidant genes, and expressing luciferase at the same extent.^15 AREc32 cells were plated in 96-well white plates (2X10^4 cells/well). After 24 h, cells were incubated with increasing concentrations of each compound in duplicate for 24 h (dissolved in DMSO to give a final 0.1 % vol/vol concentration of vehicle). Each plate included non-treated cells as basal luciferase expression and tBHQ (10 µM) as positive control. TBHQ is a potent Nrf2 inducer used as control in the development of the AREc32 cells.^14 Transfected clones are selected using G418. AREc32 cells express constitutively the plasmid pGL-8xARE that implements 8 copies of the EpRE sequences followed by a luciferase reporter gene. Therefore, the induction of Nrf2 is proportional to the activation of EpRE sequences, expressing luciferase at the same extent as EpRE sequences are activated. Luciferase production is then assessed by a bioluminescence assay. The Luciferase Assay System (Promega E1500), was used according to the Promega protocol and luminescence was quantified in an Orion II microplate luminometer (Berthold, Germany). Relative Light Units (RLU) were recorded for the contents of each well. Fold induction of luciferase activity was calculated by dividing the RLU obtained for the tests wells for each treatment by the average RLU obtained for the basal conditions. Data are expressed as CD values, expressing the concentration required to double the basal luciferase activity, used to quantify the Nrf2 induction potency. CD values are calculated from dose-response curves generated from fold induction of control conditions vs. inducer concentration and fitted by non-linear regression and data interpolated to value the 2-fold induction concentration, using GraphPad Prism software (San Diego, CA, USA).

[4] = tested on: primary rat glial cells; assay: Nitrite production in LPS-stimulated primary glial cultures (Griess); type: cell-based; conditions: Glial cell, 24 h pre-incubation, 18 h co-incubation with LPS 1 μg/mL, read-out: IC50 nitrite reduction
Description: (§1) Therefore, we envisaged the study of compounds 5a–t as potential anti-inflammatory agents. We used primary rat glial cells treated with lipopolysaccharide (LPS) to induce the production of nitrites and ROS as a model of glial activation. Nitrite production is directly proportional to the expression of the iNOS, that is over-expressed when LPS activates glial cells. ROS production is proportional to NOX activation after stimulation with LPS. Results are summarized in Table 2 as IC50s of nitrite production reduction and ROS production reduction. We have included sulforaphane as control in all experiments (see the Supporting Information).
Glial cells were pre-incubated with increasing concentrations of compounds for 24 hours. Then, treatments were removed and cells were incubated with LPS (1 μg/mL) alone or in presence of each compound at the desired concentration. Nitrite production was assessed 18 hours later by modified Griess assay. Briefly, samples (150 μl) were mixed with dapsone (75 μl) and NEDA (75 μl), and the mixture was incubated at room temperature for 5 min. Light absorption was measured at 550 nm in a microplate reader (Labtech, Offenburg, Germany). All data were normalized to basal nitrite production, considering this value as 100% of nitrite production. IC50 values were calculated from dose-response curves represented as percentage of nitrite production reduction induced by the different concentrations of each compound.
(§2) Mixed glial cultures were obtained from cerebral cortex of 2-5 day-old Sprague-Dawley rats. After removal of blood vessels and meninges, the forebrains were dissociated in DMEM/F12 medium. After mechanical dissociation, cells were plated (3x10^5 cells/ml) in DMEM/F12 medium with 20% fetal bovine serum (FBS) and 1 % penicillin/streptomycin (10,000 units), at 37 °C and in a 5 % CO2-supplemented air atmosphere. After 5 days, medium was substituted by DMEM/F12 medium with 10 % FBS. Cells were cultured for 7-10 days before treatment.
Primary rat glial cells were treated with compounds 5a-t at increasing concentrations (3, 10, 30 and 60 µM) during 24 h. Thereafter, treatments were removed and glial cells were co-incubated with increasing concentrations of each compound and LPS (1 µg/mL) for 18 h more. At the end of this period, supernatant was collected and the presence of nitrites was analyzed by the Griess method with modifications.^20 Each plate included non-treated cells as basal nitrite production, sulforaphane (SFN, 10 µM) as positive control. Briefly, samples (150 µl) were mixed with DAPSONE (75 µl) and NEDA (75 µl), and the mixture was incubated at room temperature for 5 min. Light absorption was measured at 550 nm in a microplate reader (Labtech, Offenburg, Germany). All data were normalized to basal nitrite production, considering this value as 100% of nitrite production. EC50 values were calculated from dose-response curves represented as percentage of nitrite production reduction induced by the different concentrations of each compound. Concentration response curves were fitted by non-linear regression analysis of individual concentration-response curves using GraphPad Prism software (San Diego, CA, USA). EC50 values are expressed as mean ± SEM of four different experiments in triplicate.

[5] = tested on: primary rat glial cells; assay: ROS production in LPS-stimulated primary glial cultures (H2DCFDA); type: cell-based; conditions: Glial cell, 24 h pre-incubation, 18 h co-incubation with LPS, 3 h with fluorescent dye, read-out: IC50 ROS reduction
Description: as §1
Besides the increase in nitrite production, it is well known that LPS stimulation of microglia also induces the activation of NOX, which induces superoxide free radical production. In fact, this mechanism is synergistic with the expression of iNOS and the production of nitrites. In this respect, there is a body of evidence showing that NOX activation is a major contributor to ROS oxidative stress and neuronal death in AD[57][58]. […] In general, potency to reduce ROS production increased from ortho to para and meta as observed above.
(§3) Primary glial cells were cultured in bottom transparent 96-well black plates following standard protocol. Cells were pre-incubated with the corresponding compound at the selected concentrations, for 24 hours, and therafter, co-incubated with the corresponding compound and LPS (1 μM) during 18 h more. Then, treatments were removed and cells were loaded with the fluorescent probe 2′,7′-dichlorodihydrofluorescein diacetate (H2DCFDA) (10 μM) for 45 minutes in serum free glial culture medium. All experiments included cells treated with culture medium alone (basal). Cells were washed twice with culture medium and fluorescence intensity was recorded in a Fluostar Optima multiwall pate reader (BMG Labtech, Offenburg, Germany) at 485/520 nm as excitation and emission wavelengths respectively, each hour, during 3 hours period. Data were normalized with respect to basal conditions that were considered as 100%.
as §3, with “µM)” for “μM)”, “2',7'-dichlorodihydrofluorescein” for “2′,7′-dichlorodihydrofluorescein”
as §2

[6] = tested on: SH-SY5Y cells; assay: Neuroprotection against okadaic acid (tau hyperphosphorylation), MTT; type: cell-based; conditions: 1 μM, 24 h pre-incubation, 18 h co-incubation with OA 20 nM
[7] = tested on: HepG2 cells; assay: Hepatotoxicity in HepG2 cell line (MTT); conditions: 24 h
Description: as §6, §4, §7, §5

[8] = biological target: T1, Nrf2-Keap1 protein-protein interaction (Homo sapiens, UniProt Q14145); assay: Fluorescence polarization assay of Nrf2-Keap1 interaction; type: binding; conditions: ligand concentration 10 µM; read-out: FP % Inhibition (± SEM)
T1 construct: a solution of the Keap1 Kelch domain (200 nM)
Description: Data are presented the means ± SEM of two experiments performed in triplicate.
The FP assay was carried out as previously described.^16,17 Inhibitors (10 µM) were plated onto untreated Corning® black 96 well plates containing a solution of the Keap1 Kelch domain (200 nM) and the fluorescent peptide FITC-β-DEETGEF-OH (1 nM) in Dulbecco’s Phosphate Buffered Saline (DPBS) at pH 7.4 (11% final DMSO concentration, 100 µL final volume). Following a 30 min incubation under slow agitation and away from light at room temperature, the plates were transferred to a PHERAstar microplate reader (BMG Labtech, Ortenberg, Germany) and the fluorescence polarisation was recorded. All measurements were recorded in triplicate.

[9] = biological target: T2, Keap1 Kelch domain (Homo sapiens, UniProt Q14145); assay: Differential scanning fluorimetry assay; type: binding; conditions: ligand concentration 10 µM
T2 construct: A solution of the Keap1 Kelch domain protein (5 µM)
Description: A solution of the Keap1 Kelch domain protein (5 µM) and detection dye SYPRO® orange (5X) in DPBS at pH 7.4 was added onto a qPCR plate containing the compound inhibitor (10 µM, 10% final DMSO concentration, 40 µL final volume). The plate was sealed using an optical foil seal and covered with aluminum foil to protect the dye from light. The plate was then transferred to a plate centrifuge and spun down briefly (200 G, 1 min, room temperature) to remove any bubbles and collect the solution at the bottom of the wells. Following a 30 min incubation at room temperature, the plate was placed into a 7500 Real time PCR machine and the fluorescence intensity at an excitation of 465 nm and emission of 580 nm was recorded during a temperature scan from 25 °C to 95 °C with a temperature ramping rate of 1 °C/min. All measurements were run in triplicate. Life Technologies software was used to set up the run on 7500 Software v.2.0.0 and the initial data processing was carried out on Protein thermal shift solution software. The raw data were exported to MS Excel and analysis was performed using a custom script provided by the Structural Genomics Consortium Oxford.^18 The temperature range over which the protein unfolding occurred was selected and the maximum and minimum (at temperatures below the maximum intensity) fluorescence intensities within this range were determined. The processed data were fitted to the Boltzmann equation by non-linear regression using the Origin Pro software.

[10] = tested on: SH-SY5Y cells; assay: Cytotoxicity in SH-SY5Y neuroblastoma cell line (MTT); conditions: 24 h
Description: as §4, §5

[11] = biological target: T3, GSK3β (Homo sapiens, UniProt P49841); assay: GSK3β inhibition, luminescence Kinase-Glo assay; type: biochemical; conditions: for Ki: calculated from IC50 by Cheng-Prusoff equation, Km ATP 2.345 µM, read-out: Ki (apparent equilibrium dissociation constant); for IC50: four concentrations 0.1, 1, 10, 30 μM, ATP 1 μM, 1 h
T3 construct: purchased Promega V1991
Description: GSK3β inhibitory activity was evaluated using the method developed by Baki[66], with modifications. Compounds were dissolved in assay buffer, containing 40 mM Tris (pH 7.5), 20 mM MgCl2, 0.1 mg/ml BSA (bovine serum albumin) and 50 μM dithiothreitol (DTT) at the desired concentrations. Firstly, 10 μl of enzyme (10 ng) and 10 μl of each compound were mixed for 30 min. Then, 20 μl of a mixture of ATP (1 μM) and GSK3β peptidic substrate were added to each well. The mixture was incubated for 60 min at 30 °C. Thereafter, the remaining ATP concentration was measured with the Kinase-Glo system following instructions from the supplier. Luminescence was measured in an Orion II microplate luminometer (Berthold, Germany) as relative light units (RLU). […] IC50 values were calculated by non-linear regression analysis of individual concentration-response curves using GraphPad Prism 5.0 software (San Diego, CA, USA).
The ability of the compounds to inhibit GSK3β was evaluated using the method developed by Baki^9 with some modifications. The tested compounds were dissolved in assay buffer, containing 40 mM Tris (pH 7.5), 20 mM MgCl2, 0.1 mg/ml BSA (bovine serum albumin) and 50 µM dithiothreitol (DTT), to achieve final reaction concentrations of 0.1, 1, 10 and 30 µM. […] The GSK3β inhibition assay was performed in white 96-well plates, in duplicates. Firstly, 10 µl of enzyme (10 ng) were added to each well, followed by 10 µl of the compounds at the desired concentration. After 30 minutes, 20 µl of a mixture of ATP and GSK3β peptidic substrate were added to each well, achieving a final concentration of 1 µM of ATP and 25 of µM peptidic substrate. The mixture was incubated at 30 °C for 60 minutes. Once the reaction was finished, the remaining ATP concentration was measured by adding 40 µl/well of Kinase-Glo reagent. The luminescence was measured in an Orion II microplate luminometer (Berthold, Germany) as relative light units (RLU). The luminescence recorded is proportional to the amount of ATP present in each well.
Apparent Ki for each compound were calculated from GSK3β Km value for ATP, applying the Cheng-Prusoff equation^10,11 in its simplified form: Ki = IC50/(1+([S]/Km)), in which S refers to the ATP concentration and Km is the Michaelis constant of the substrate for GSK3β.

[12] = biological target: T3, GSK3β; conditions: cited from earlier work

T3 sequence (P49841 whole entry): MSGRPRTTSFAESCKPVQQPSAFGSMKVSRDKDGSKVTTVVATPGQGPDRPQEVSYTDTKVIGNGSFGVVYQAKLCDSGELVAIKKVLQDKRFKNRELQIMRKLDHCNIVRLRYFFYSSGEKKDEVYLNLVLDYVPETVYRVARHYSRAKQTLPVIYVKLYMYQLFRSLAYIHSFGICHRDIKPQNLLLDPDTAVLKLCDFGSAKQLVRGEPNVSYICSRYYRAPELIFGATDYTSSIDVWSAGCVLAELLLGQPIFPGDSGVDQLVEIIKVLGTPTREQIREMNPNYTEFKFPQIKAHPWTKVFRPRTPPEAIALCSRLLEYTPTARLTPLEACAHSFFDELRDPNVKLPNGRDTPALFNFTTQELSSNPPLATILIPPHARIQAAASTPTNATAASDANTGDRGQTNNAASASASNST
T2 sequence (Q14145 321-609 limits assumed): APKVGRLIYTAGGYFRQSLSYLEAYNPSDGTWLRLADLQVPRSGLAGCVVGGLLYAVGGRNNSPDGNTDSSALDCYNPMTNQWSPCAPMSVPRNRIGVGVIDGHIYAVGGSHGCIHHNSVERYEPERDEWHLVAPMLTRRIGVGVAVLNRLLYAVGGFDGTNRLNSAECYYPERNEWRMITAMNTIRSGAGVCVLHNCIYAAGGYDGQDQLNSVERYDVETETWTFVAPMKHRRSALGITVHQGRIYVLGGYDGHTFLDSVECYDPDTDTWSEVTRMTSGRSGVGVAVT
T1 sequence (Q14145 321-609 limits assumed): as above

Row | SMILES | SH-SY5Y LD50 [1] [µM] | HepG2 LD50 [2] [µM] | Nrf2 induction (luciferase activity), result in words [3] | EC50 [3] [µM] | IC50 [4] [µM] | IC50 [5] [µM] | Ki [11] [µM] | IC50 [11] [µM] | also measured
1 | Cn1cc(C2=C(c3ccc(Cl)cc3Cl)C(=O)NC2=O)c2ccccc21 [SB216763, reference compound] | > 100 | > 100 | inability of the GSK3β inhibitor SB216763 to induce Nrf2 transcriptional activity | > 30 | – | – | – | – | –
2 | C[S+]([O-])CCCCN=C=S (stereo not shown) [Sulforaphane] | – | – | – | 0.54 ± 0.07 | 1.4 ± 0.3 | 2.84 ± 0.55 | – | – | –
3 | Cc1[nH]nc2c1C(c1ccncc1)C(C#N)=C(N)O2 (stereo not shown) [Compound 5t, 6-Amino-3-methyl-4-(pyridin-4-yl)-2,4-dihydropyrano[2,3-c]pyrazole-5-carbonitrile] | – | – | – | – | 28.8 ± 3.61 | 37.8 ± 1.17 | 5.8 | 8.28 ± 0.7 | Percentage of protection against okadaic acid toxicity [6]: over 50%; HepG2 LD50 [7]: > 100 µM; inhibition at 10 µM [8]: 1.24 ± 3.22%; ΔTm at 10 µM [9]: -0.53 ± 0.28 °C; SH-SY5Y LD50 [10]: > 100 µM
4 | Cc1[nH]nc2c1C(c1ccccc1)C(C#N)=C(N)N2 (stereo not shown) [Compound 7, 6-amino-3-methyl-4-phenyl-4,7-dihydro-2H-pyrazolo[3,4-b]pyridine-5-carbonitrile] | – | – | completely unable to induce Nrf2 | – | – | – | 13.1 | 18.6 ± 0.4 | –
5 | COc1ccc2[nH]cc(CCNC(C)=O)c2c1 [Melatonin] | > 100 | > 100 | – | – | – | – | – | – | –
6 | N#Cc1c(N)nc2[nH]nc(N)c2c1-c1ccccc1 [Compound 2] | – | – | – | – | – | – | – | – | IC50 [12]: 1.5 µM
